According to patent publication US20240150755A1, “MODULATING REGULATORY T CELL FUNCTION IN AUTOIMMUNE DISEASE AND CANCER” (Salk Institute for Biological Studies, priority 2021, published 2024):
“Also recorded” adds a separate entry of the source.

Experiments:
Assay type in all cases: cell-based, mouse
Foxp3 = Foxp3 expression (MFI) in Treg cells by flow cytometry
Description: (§1) For large scale Treg culture, Tregs were first expanded in Rosa-Cas9/Foxp3^Thy1.1 mice by injecting IL-2:IL-2 antibody immune complex according protocol described in Webster et. al (J Exp Med 206, 751-760, 2009). Spleen and lymph node Treg cells were labeled with PE-conjugated Thy1.1 antibody and isolated by magnetic selection using anti-PE microbeads (Mitenyl #130-048-801). All isolated Treg cells were activated by plate bound anti-CD3 and anti-CD28 antibodies and cultured with X-VIVO® 20 media (LONZA #04-448Q) supplemented by 1× Pen/Strep, 1× Sodium pyruvate, 1× HEPES, 1× GlutaMax™, 55 μM beta-mercaptoethanol in the presence of IL-2 at 500 units/mL. For experiments with Brd9 degradation, Treg cells were treated at day 0 with 2.5 μM dBRD9 (Tocris #6606) and cultured for four days for RNA- and ChIP-seq and 0.16-10 μM treated at day 0 and cultured dBRD9 for four days for Foxp3 MFI, cell viability and cell proliferation assays. Live cells were enriched by Ficoll-Paque® 1.084 (GE Health 17-5446-02) for RNA-seq and ChIP-seq.
HEK293T cells were seeded in 6-wells plate at 0.5 million cells per 2 mL DMEM media supplemented by 10% FBS, 1% Pen/Strep, 1× GlutaMax®, 1× Sodium Pyruvate, 1× HEPES, and 55 μM beta-mercaptoethanol. […] Transduced cells were analyzed for Foxp3 and cytokine expression in eBioscience® Fix/Perm buffer (eBioscience #00-5523-00) using flow cytometry. […]

Foxp3-bound sites = assay: Foxp3 ChIP-seq in Treg cells
Description: as §1
(§2) Treg cells were collected and cross-linked first in 3 mM disuccinimidyl glutarate (DSG) in 1×PBS for thirty minutes then in 1% formaldehyde for another ten minutes, both at RT, for chromatin binding protein ChIP or in 1% formaldehyde only for histone modification ChIP. After quenching the excess cross-linker with a final concentration of 125 mM glycine, the cells were washed in 1× PBS, pelleted, flash-frozen in liquid nitrogen, and stored at −80° C. Cell pellets were thawed on ice and incubated in lysis solution (50 mM HEPES-KOH pH 8, 140 mM NaCl, 1 mM EDTA, 10% glycerol, 0.5% NP40, 0.25% Triton X-100) for ten minutes. The isolated nuclei were washed with wash solution (10 mM Tris-HCl pH 8, 1 mM EDTA, 0.5 mM EGTA, 200 mM NaCl) and shearing buffer (0.1% SDS, 1 mM EDTA, 10 mM Tris-HCl pH 8) then sheared in a Covaris® E229 sonicator for ten minutes to generate DNA fragments between ˜200-1000 base pairs (bp). After clarification of insoluble material by centrifugation, the chromatin was immunoprecipitated overnight at 4° C. with antibodies against Foxp3, Smarca4, Brd9, Phf10 or H3K27ac. The next day, the antibody bound DNA was incubated with Protein A+G Dynabeads™ (Invitrogen) in ChIP buffer (50 mM HEPES-KOH pH 7.5, 300 mM NaCl, 1 mM EDTA, 1% Triton X-100, 0.1% DOC, 0.1% SDS), washed and treated with Proteinase K and RNase A. Cross-linking was reversed by incubation at 55° C. for two and a half hours. Purified ChIP DNA was used for library generation (NuGen Ovation® Ultralow Library System V2) according to manufacturer's instructions for subsequent sequencing.
Single-end 50 bp or paired-end 42 bp reads were aligned to mouse genome mm10 using STAR alignment tool (V2.5) (Dobin et al., Bioinformatics 29:15-21, 2013). ChIP-Seq peaks were called using findPeaks within HOMER using parameters for histone (-style histone) or transcription factor (-style factor) (homer.ucsd.edu/homer/index.html). Peaks were called when enriched >two-fold over input and >four-fold over local tag counts, with FDR 0.001. For histone ChIP, peaks within a 1000 bp range were stitched together to form regions. Differential ChIP peaks were found by merging peaks from control and experiment groups and called using getDiffExpression.pl with fold change ≥1.5 or ≤−1.5, Poisson p value<0.0001.

Treg cells [1] = assay: Cell division by CellTrace dilution in Treg cells; settings: dBRD9 in increasing concentrations for 4 days
Description: as §1

Treg cells [2] = assay: Cell viability by Ghost Dye in Treg cells; settings: dBRD9 in increasing concentrations for 4 days
Description: as §1

Treg cells [3] = assay: In vitro Treg suppression assay
Description: Treg cells were transduced by retrovirus expressing sgRNA targeting gene of interest and cultured in X-VIVO® complete media supplemented with IL-2 (500 U/ml). Four days after transduction, transduced cells were […] a fluorescence-activated cell sorter (FACS). CD45.1+ naive CD4 T cells (CD4^+CD25^−CD44^loCD62^hi) were labeled with CellTrace™ Violet (Thermo Fisher Scientific #C34571) in different ratio in the presence of irradiated T cell depleted spleen cells as antigen-presenting cells (APC). Three days later, Treg suppression function was measured by the percentage of non-dividing cells within the CD45.1^+ effector T cell population. For dBRD9 treatment experiment, dBRD9 was first dissolved in DMSO (10 mM stock) and added into Treg:Teff:APC mixture at 2.5 μM. For Foxp3 overexpression rescue experiment, Treg cells were first transduced with sgNT or sgBrd9 at 24 hour post-activation, and then transduced with MIGR empty vector or MIGR-Foxp3 at 48 hour post-activation. Double transduced Treg cells were FACS sorted on day 4 based on NGFR+ and GFP+ markers and then mixed with CellTrace™ labeled effector T cells in the presence of APC. Treg suppression readout was measured after three days of co-culture.

Foxp3 target genes = assay: RNA-seq and gene set enrichment analysis in Treg cells; settings: sgRNA transduced Treg cells vs sgNT
Description: as §1
RNA from 1-3×10^6 cells was extracted and purified with TRIzol™ reagent (Thermo Fisher) according to manufacturer's instructions. RNA-seq libraries were prepared using Illumina® TruSeq® Stranded mRNA kit following manufacturer's instructions with 5 μg of input RNA.
Single-end 50 bp reads were aligned to the mouse genome mm10 using STAR alignment tool (V2.5) (Dobin et al., Bioinformatics 29:15-21, 2013). RNA expression was quantified as raw integer counts using analyzeRepeats.pl in HOMER (Heinz et al., Mol Cell 38:576-589, 2010) using the following parameters: -strand both -count exons -condenseGenes -noadj. To identify differentially expressed genes, getDiffExpression.pl in HOMER was used, which uses the DESeq2R package to calculate the biological variation within replicates. Cut-offs were set at log 2 FC=0.585 and FDR at 0.05 (Benjamin-Hochberg). Principal Component Analysis (PCA) was performed with the mean of transcript per million (TPM) values using Cluster 3.0 with the following filter parameters: at least one observation with absolute value equal or greater than two and gene vector of four. TPM values were log transformed then centered on the mean.
GSEA software (Mootha et al., Nat Genet 34:267-273, 2003; Subramanian et al., PNAS 102:15545-15550, 2005) was used to perform the analyses with the following parameters: number of permutations=1000; enrichment statistic=weighted; and metric for ranking of genes=difference of classes (Input RNA-seq data was log-transformed). For GSEA analysis, input RNA-seq data contained the normalized log-transformed reads of the 1,325 differentially expressed genes (DEGs) in sgFoxp3/sgNT Treg cells. The compiled gene list included GSEA Gene Ontology, Immunological Signature, Curated Gene, and the up and down DEGs in sgBrd9/sgNT Treg cells.
For gene expression analysis in FIG. 42F, Foxp3 ChIP-seq tags were quantified at the union of sites bound by Foxp3 in sgNT and sgBrd9 using the annotatePeaks.pl command in HOMER with size-given and each site was annotated to a gene by mapping to the nearest TSS. Sites were ranked from least to largest Foxp3 ChIP-seq Log2FC in sgBrd9 vs sgNT and divided into quartiles. Gene expression for the genes in the top and bottom quartiles (Brd9-dependent and -independent, respectively) was then plotted using RNA-seq data from Treg cells transduced with sgBrd9, sgSmarcd1, or sgPbrm1 compared to sgNT. […]

H3K27ac = H3K27ac ChIP-seq in Treg cells; settings: sgRNA transduced Treg cells
Description: as §2, with “The next day, the antibody bound DNA was incubated with Protein A+G Dynabeads™ (Invitrogen) in ChIP buffer (50 mM HEPES-KOH pH 7.5, 300 mM NaCl, 1 mM EDTA, 1% Triton X-100, 0.1% DOC, 0.1% SDS), washed and treated with Proteinase K and RNase A. Cross-linking was reversed by incubation at 55° C. for two and a half hours. Purified ChIP DNA was used for library generation (NuGen Ovation® Ultralow Library System V2) according to manufacturer's instructions for subsequent sequencing.” left out
Single-end 50 bp or paired-end 42 bp reads were aligned to mouse genome mm10 using STAR alignment tool (V2.5) (Dobin et al., Bioinformatics 29:15-21, 2013). […]

COc1cc(-c2cn(C)c(=O)c3cnccc23)cc(OC)c1CN(C)CC(=O)NCCOCCOCCNc1cccc2c1C(=O)N(C1CCC(=O)NC1=O)C2=O (stereo not shown) [dBRD9]
Foxp3 expression (MFI) (Foxp3; Treg cells, 0.16-10 μM dBRD9 for 4 days vs DMSO): significantly decreased Foxp3 expression in Treg cells in a concentration-dependent manner; also recorded: reduces Foxp3 expression
Foxp3 binding to chromatin (Foxp3-bound sites; Treg cells, 2.5 μM dBRD9 for 4 days vs DMSO): diminished Foxp3 binding to chromatin at a subset of Foxp3 target sites
cell proliferation (Treg cells [1]): without affecting cell viability or proliferation; also recorded: without affecting cell viability and proliferation
cell viability (Treg cells [2]): without affecting cell viability
T effector responses (Treg cells [3]; dBRD9 2.5 μM, in vitro): without impairing T effector responses
Treg suppressor function (Treg cells [3]; dBRD9 added to Treg:Teff:APC mixture at 2.5 μM): significantly and specifically compromised Treg suppressor function; also recorded: reduces Treg suppressor activity

sgFoxp3: sgRNA targeting Foxp3, TCTACCCACAGGGATCAATG (SEQ ID NO: 1) (expressed or natural sequence)
genes with increased expression (Foxp3 target genes; RNA-seq): 532 genes
genes with reduced expression (Foxp3 target genes; RNA-seq): 793 genes
Foxp3 binding at CNS2/CNS0 (Foxp3-bound sites; sgRNA transduced Treg cells): dramatic reduction in Foxp3 binding at CNS2/CNS0
Foxp3 binding sites at which Foxp3 binding was lost (Foxp3-bound sites; sgRNA transduced Treg cells, genome-wide): over 85%
H3K27ac at Brd9-dependent Foxp3 sites (H3K27ac): reduction in H3K27ac

sgPbrm1: sgRNA targeting Pbrm1, AAAACACTTGCATAACGATG (SEQ ID NO: 8) (expressed or natural sequence)
Foxp3 binding at CNS2/CNS0 (Foxp3-bound sites; sgRNA transduced Treg cells): subtle increase in Foxp3 binding at CNS2/CNS0
Foxp3 binding at a subset of Foxp3 sites (Brd9-dependent sites) (Foxp3-bound sites; sgRNA transduced Treg cells, FC1.5, Poisson p<0.0001): did not change

sgSmarcd1: sgRNA targeting Smarcd1, CAATCCGGCTAAGTCGGACG (SEQ ID NO: 15) (expressed or natural sequence)
gene expression of Brd9-dependent vs Brd9-independent Foxp3 target genes (Foxp3 target genes): significantly more affected

sgUsp22: sgRNA targeting Usp22, GCCATCGACCTGATGTACGG (SEQ ID NO: 18) (expressed or natural sequence)
Foxp3 expression (MFI) (Foxp3; sgRNA transduced Cas9 Treg cells vs sgNT): reduces Foxp3 expression
Treg suppressor activity (Treg cells [3]; sgRNA transduced Treg cells vs sgNT): compromised Treg suppressor activity
